Test results as given in patent US20230144838A1, “THERANOSTIC SYSTEM FOR DIRECTED DIFFUSION OF THERAPEUTIC AND IMAGING AGENTS TO CANCER CELLS” (UNIVERSITAT POLITÈCNICA DE VALÈNCIA, priority 2019, published 2023).

Test system: LNCaP (with membrane receptors FOLH1)
Assay: In vitro cytotoxic activity by MTT assay, LNCaP cells
Format: cell-based
Conditions: LNCaP human prostate adenocarcinoma cells, 72 hours, DTX equivalent concentration, n = 3, read-out: IC50 (mean ± SD)
Protocol: The in vitro cytotoxic activity of the theranostic system was determined by the 3-[4,5-dimethylthiazol-2-yl]-2,5-diphenyltetrazolium (MTT) bromide test. In these assays, the proliferation of living cells is determined via mitochondrial dehydrogenase activity: viable mitochondria reduce MTT by generating MTT-formazan crystals that are quantifiable by visible spectrophotometry.
Two types of human prostate adenocarcinoma cell lines were used for these assays: LNCaP (with membrane receptors FOLH1, PROTEIN DATA BANK ID FOLH1: 1Z8L) and PC3 (without FOLH1 receptors).
The cells are seeded in 96-well plates at a rate of 10,000 cells/well in both cases, 24 h before incorporating the nanoparticles. Aliquots of 3 mg ml-^1 of DTX in DMSO are prepared and kept at −20° C. When required, an aliquot is thawed, and working aliquots (100 μg/ml by dilution in enriched RPMI medium) are prepared. Alternatively, aliquots of 100 μg/mL DTX are prepared in enriched RPMI medium and kept at −20° C. until required. […]
At the end of the incubation period, 10 μl (5 mg/ml) of the MTT solution are added to each well and 4 hours later the formazan crystals are dissolved with isopropanol, and the absorbance at 570 nm is measured. The percentage of cell survival relative to untreated cells is determined and the values of IC50 from the curve DTX concentration-(%) live cells are calculated.

Structure (SMILES): CC(=O)O[C@@]12CO[C@@H]1C[C@H](O)[C@@]1(C)C(=O)[C@H](O)C3=C(C)[C@@H](OC(=O)[C@H](O)[C@@H](NC(=O)OC(C)(C)C)c4ccccc4)C[C@@](O)([C@@H](OC(=O)c4ccccc4)[C@H]21)C3(C)C [DTX, docetaxel]
- IC50: 0.8 ± 0.2 µg/mL
